Source: patent US20110044938A1 (NYCOMED GMBH, priority 2006, published 2011)

How the values were obtained:
[1] = tested on: subclones of RKO colon adenocarcinoma cells (RKOp27 or RKOp21) arrested by Ponasterone A; test: Alamar Blue cell viability assay, cell cycle specific mode of action: cells arrested by ectopic p27Kip1 induced by Ponasterone A versus proliferating cells; assay type: cell-based; details: Homo sapiens, RKO p27 induced (arrested) cells, 10 μM Ponasterone A, 72 hours, value = class bound given in Table A, read-out: −logIC50 RKO p27 induced (arrested) (converted)
Summary of the method: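 RKOp27 or RKOp21 cells, 15000/well in DMEM/10% FCS, either arrested by p27Kip1 induced with 10 μM Ponasterone A or proliferating without inducer; compound added after 24 h, 72 h at 37° C. Alamar Blue fluorescence (544/590 nm), viability as % of untreated cells; −log IC50 reported.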

[2] = tested on: RKO (RKOp27) human colon adenocarcinoma cells; test: Alamar Blue cell viability assay, anti-proliferative/cytotoxic activity on proliferating RKO subclones; assay type: cell-based; details: RKOp27, 72 h, RKO p27 uninduced (proliferating) cells, value = class bound given in Table A, read-out: −logIC50 RKO p27 uninduced (proliferating) (converted)
Summary of the method: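 RKOp27 subclones (5000 cells/well) were exposed 24 h after seeding to semi-log compound dilutions in DMEM with 10% FCS, in quadruplicate, for 72 h at 37 °C. Viability was read by Alamar Blue fluorescence (544/590 nm) relative to untreated cells (1% DMSO medium). IC50 came from concentration-effect curves and is reported as −log IC50 [mol/l].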

| SMILES | IC50 [1] [nM] | IC50 [2] [nM] |
| --- | --- | --- |
| COc1cccc(C(C)CC(=O)Nc2sc3c(c2C#N)CCC(OC(=O)NCC2CCOCC2)C3)c1 (stereo not shown) [Example 270, (Tetrahydro-pyran-4-ylmethyl)-carbamic acid 3-cyano-2-[3-(3-methoxy-phenyl)-butanoyl-amino]-4,5,6,7-tetrahydro-benzo[b]thiophen-6-yl ester] | ≥ 100000 | 501 to 2000 |
| CC1CCCN1C(=O)OC1CCc2c(sc(NC(=O)/C=C/c3cccnc3)c2C#N)C1 (stereo not shown) [Example 93, 2-Methylpyrrolidine-1-carboxylic acid 3-cyano-2-((E)-3-pyridin-3-yl-allanoylamino)-4,5,6,7-tetrahydro-benzo[b]thiophen-6-yl ester] | ≥ 100000 | ≤ 501 |
| N#Cc1c(NC(=O)/C=C/c2cccnc2)sc2c1CC[C@H](COC(=O)N1CC(O)C1)C2 [Example 73a, 3-Hydroxy-azetidine-1 - carboxylic acid (S)-3-cyano-2-((E)-3-pyridin-3-yl-allanoylamino)-4,5,6,7-tetrahydro-benzo[b]thiophen-6-ylmethyl ester] | ≥ 100000 | ≤ 501 |
| N#Cc1c(NC(=O)/C=C/c2cccnc2)sc2c1CCC(COC(=O)N1CCCC(O)C1)C2 (stereo not shown) [Example 87, 3-Hydroxy-piperidine-1-carboxylic acid 3-cyano-2-((E)-3-pyridin-3-yl-allanoylamino)-4,5,6,7-tetrahydro-benzo[b]thiophen-6-ylmethyl ester] | ≥ 100000 | ≤ 501 |
| COCCOC(=O)OC1CCc2c(sc(NC(=O)/C=C/c3cccnc3)c2C#N)C1 (stereo not shown) [Example 27, Carbonic acid 3-cyano-2-((E)-3-pyridin-3-yl-allanoylamino)-4,5,6,7-tetrahydro-benzo[b]thiophen-6-yl ester 2-methoxy-ethyl ester] | ≥ 100000 | ≤ 501 |
| COc1cccc(C(C)CC(=O)Nc2sc3c(c2C#N)CCC(OC(=O)NCc2cn(C)nc2C)C3)c1 (stereo not shown) [Example 276, (1,3-Dimethyl-1H-pyrazol-4-ylmethyl)-carbamic acid 3-cyano-2-[3-(3-methoxy-phenyl)-butanoylamino]-4,5,6,7-tetrahydro-benzo[b]thiophen-6-yl ester] | ≥ 100000 | ≤ 501 |
| CC1CCCN1C(=O)OCC1CCc2c(sc(NC(=O)/C=C/c3cccnc3)c2C#N)C1 (stereo not shown) [Example 88, 2-Methylpyrrolidine-1-carboxylic acid 3-cyano-2-((E)-3-pyridin-3-yl-allanoylamino)-4,5,6,7-tetrahydro-benzo[b]thiophen-6-ylmethyl ester] | ≥ 100000 | ≤ 501 |
| N#Cc1c(NC(=O)/C=C/c2cccnc2)sc2c1CCC(OC(=O)NC1CCCCC1)C2 (stereo not shown) [Example 142, Cyclohexyl-carbamic acid 3-cyano-2-((E)-3-pyridin-3-yl-allanoylamino)-4,5,6,7-tetrahydro-benzo[b]thiophen-6-yl ester] | ≥ 100000 | 501 to 2000 |
| Cc1cc(CNC(=O)OC2CCc3c(sc(NC(=O)/C=C/c4cccnc4)c3C#N)C2)no1 (stereo not shown) [Example 42, (5-Methyl-isoxazol-3-ylmethyl)-carbamic acid 3-cyano-2-((E)-3-pyridin-3-yl-allanoylamino)-4,5,6,7-tetrahydro-benzo[b]thiophen-6-yl ester] | ≥ 100000 | 501 to 2000 |
| N#Cc1c(NC(=O)/C=C/c2cccnc2)sc2c1CCC(OC(=O)NCC1CC1)C2 (stereo not shown) [Example 109, Cyclopropylmethyl-carbamic acid 3-cyano-2-((E)-3-pyridin-3-yl-allanoylamino)-4,5,6,7-tetrahydro-benzo[b]thiophen-6-yl ester] | ≥ 100000 | ≤ 501 |
| COC(=O)[C@@H]1CCCN1C(=O)OCC1CCc2c(sc(NC(=O)/C=C/c3cccnc3)c2C#N)C1 (stereo partly drawn) [Example 136, 2-(S)-Pyrrolidine-1,2-dicarboxylic acid 1-[3-cyano-2-((E)-3-pyridin-3-yl-allanoylamino)-4,5,6,7-tetrahydro-benzo[b]thiophen-6-ylmethyl] ester 2-methyl ester] | ≥ 100000 | 501 to 2000 |

Second part, led by results:

| IC50 [1] [nM] | SMILES | IC50 [2] [nM] |
| --- | --- | --- |
| ≥ 50100 | CC(CC(=O)Nc1sc2c(c1C#N)CCC(COC(=O)NCc1ccccc1)C2)c1ccccn1 (stereo not shown) [Example 343, Benzyl-carbamic acid 3-cyano-2-(3-pyridin-2-yl-butanoyl-amino)-4,5,6,7-tetrahydro-benzo[b] thiophen-6-ylmethyl ester] | ≤ 501 |
| ≥ 10000 | CC(CC(=O)Nc1sc2c(c1C#N)CCC(OC(=O)NCc1ccccn1)C2)c1ccccc1 (stereo not shown) [Example 287, Pyridin-2-ylmethyl-carbamic acid 3-cyano-2-(3-phenyl-butanoylamino)-4,5,6,7-tetrahydro-benzo[b] thiophen-6-yl ester] | 501 to 2000 |
| ≥ 50100 | CC(CC(=O)Nc1sc2c(c1C#N)CCC(COC(=O)NCC1CCOCC1)C2)c1ccccc1 (stereo not shown) [Example 308, (Tetrahydro-pyran-4-ylmethyl)-carbamic acid 3-cyano-2-(3-phenyl-butanoylamino)-4,5,6,7-tetrahydro-benzo[b]thiophen-6-ylmethyl ester] | ≤ 501 |
| ≥ 100000 | Cc1cc(CNC(=O)OCC2CCc3c(sc(NC(=O)/C=C/c4cnccc4C)c3C#N)C2)no1 (stereo not shown) [Example 134, (5-Methyl-isoxazol-3-ylmethyl)-carbamic acid 3-cyano-2-[(E)-3-(4-methyl-pyridin-3-yl)-allanoylamino]-4,5,6,7-tetrahydro-benzo[b]thiophen-6-ylmethyl ester] | ≤ 501 |
| ≥ 10000 | COc1cccc(C(C)CC(=O)Nc2sc3c(c2C#N)CCC(COC(=O)NCc2c[nH]nc2C)C3)c1 (stereo not shown) [Example 336, (3-Methyl-1H-pyrazol-4-ylmethyl)-carbamic acid 3-cyano-2-[3-(3-methoxy-phenyl)-butanoylamino]-4,5,6,7-tetrahydro-benzo[b] thiophen-6-ylmethyl ester] | 501 to 2000 |
| ≥ 10000 | CC(CC(=O)Nc1sc2c(c1C#N)CCC(COC(=O)NC(C)c1ccnn1C)C2)c1ccccc1 (stereo not shown) [Example 318, [1-(2-Methyl-2H-pyrazol-3-yl)-ethyl]-carbamic acid 3-cyano-2-(3-phenyl-butanoylamino)-4,5,6,7-tetrahydro-benzo[b] thiophen-6-ylmethyl ester] | ≤ 501 |
| ≥ 100000 | CCOc1ccccc1CCC(=O)Nc1sc2c(c1C#N)CCC(OC(=O)NCc1cc(C)on1)C2 (stereo not shown) [Example 172, (5-Methyl-isoxazol-3-ylmethyl)-carbamic acid 3-cyano-2-[3-(2-ethoxy-phenyl)-propanoylamino]-4,5,6,7-tetrahydro-benzo[b]thiophen-6-yl ester] | ≤ 501 |
| ≥ 100000 | CCNC(=O)OCC1CCc2c(sc(NC(=O)CC(C)c3cccnc3)c2C#N)C1 (stereo not shown) [Example 278, Ethyl-carbamic acid 3-cyano-2-(3-pyridin-3-yl-butanoylamino)-4,5,6,7-tetrahydro-benzo[b] thiophen-6-ylmethyl ester] | 501 to 2000 |
| ≥ 100000 | CCOc1ccccc1CCC(=O)Nc1sc2c(c1C#N)CCC(COC(=O)NCc1cccnc1)C2 (stereo not shown) [Example 175, Pyridin-3-ylmethyl-carbamic acid 3-cyano-2-[3-(2-ethoxy-phenyl)-propanoylamino]-4,5,6,7-tetrahydro-benzo[b]thiophen-6-ylmethyl ester] | ≤ 501 |
| ≥ 100000 | CCOc1ccccc1CCC(=O)Nc1sc2c(c1C#N)CCC(COC(=O)N1CCOCC1)C2 (stereo not shown) [Example 216, Morpholine-4-carboxylic acid 3-cyano-2-[3-(2-ethoxy-phenyl)-propanoylamino]-4,5,6,7-tetrahydro-benzo[b]thiophen-6-ylmethyl ester] | ≤ 501 |
| ≥ 10000 | CCOc1ccccc1/C=C/C(=O)Nc1sc2c(c1C#N)CCC(OC(=O)NCCn1ccnc1)C2 (stereo not shown) [Example 31, (2-Imidazol-1-yl-ethyl)-carbamic acid-3-cyano-2-[(E)-3-(2-ethoxy-phenyl)-allanoylamino]-4,5,6,7-tetrahydro-benzo[b]thiophen-6-yl ester] | ≤ 501 |
| ≥ 100000 | COc1cccc(CCC(=O)Nc2sc3c(c2C#N)CCC(COC(=O)NCc2cc(C)on2)C3)c1 (stereo not shown) [Example 240, (5-Methyl-isoxazol-3-ylmethyl)-carbamic acid 3-cyano-2-[3-(3-methoxy-phenyl)-propanoylamino]-4,5,6,7-tetrahydro-benzo[b]thiophen-6-ylmethyl ester] | ≤ 501 |
| ≥ 10000 | CCOc1ccccc1CCC(=O)Nc1sc2c(c1C#N)CCC(COC(=O)NCc1ncc[nH]1)C2 (stereo not shown) [Example 179, (1H-Imidazol-2-ylmethyl)-carbamic acid 3-cyano-2-[3-(2-ethoxy-phenyl)-propanoylamino]-4,5,6,7-tetrahydro-benzo[b]thiophen-6-ylmethyl ester] | ≤ 501 |
| ≥ 100000 | COc1cccc(CCC(=O)Nc2sc3c(c2C#N)CCC(COC(=O)NCCn2ccnc2)C3)c1 (stereo not shown) [Example 236, (2-Imidazol-1-yl-ethyl)-carbamic acid 3-cyano-2-[3-(3-methoxy-phenyl)-propanoylamino]-4,5,6,7-tetrahydro-benzo[b]thiophen-6-ylmethyl ester] | 501 to 2000 |
| ≥ 100000 | CC(CC(=O)Nc1sc2c(c1C#N)CCC(COC(=O)N1CCCC1)C2)c1cccnc1 (stereo not shown) [Example 357, Pyrrolidine-1-carboxylic acid 3-cyano-2-(3-pyridin-3-yl-butanoylamino)-4,5,6,7-tetrahydro-benzo[b]thiophen-6-ylmethyl ester] | ≤ 501 |
